Results: BigSolDB 2.1

Molecule `CNC(=O)c1cc(Oc2ccc(N)cc2)ccn1` has a solubility (mole fraction) (in THF, 278.15 K) of 0.0919, a solubility (mole fraction) (in THF, 283.15 K) of 0.0992 and a solubility (mole fraction) (in THF, 288.15 K) of 0.108. For the same molecule, the solubility (mole fraction) (in THF, 293.15 K) was 0.119, the solubility (mole fraction) (in THF, 298.15 K) was 0.13 and the solubility (mole fraction) (in THF, 303.15 K) was 0.144. For the same molecule, the solubility (mole fraction) (in THF, 308.15 K) was 0.159, the solubility (mole fraction) (in THF, 313.15 K) was 0.174 and the solubility (mole fraction) (in THF, 318.15 K) was 0.194. It also gave a solubility (mole fraction) (in THF, 323.15 K) of 0.214, a solubility (mole fraction) (in acetone, 278.15 K) of 0.046 and a solubility (mole fraction) (in acetone, 283.15 K) of 0.0481. For the same molecule, the solubility (mole fraction) (in acetone, 288.15 K) was 0.0514, the solubility (mole fraction) (in acetone, 293.15 K) was 0.0558 and the solubility (mole fraction) (in acetone, 298.15 K) was 0.0616. The solubility (mole fraction) (in acetone, 303.15 K) was 0.0683, the solubility (mole fraction) (in acetone, 308.15 K) was 0.0766 and the solubility (mole fraction) (in acetone, 313.15 K) was 0.086. The solubility (mole fraction) (in acetone, 318.15 K) was 0.0975, the solubility (mole fraction) (in acetone, 323.15 K) was 0.112 and the solubility (mole fraction) (in acetonitrile, 278.15 K) was 0.0286. It also gave a solubility (mole fraction) (in acetonitrile, 283.15 K) of 0.033, a solubility (mole fraction) (in acetonitrile, 288.15 K) of 0.0401 and a solubility (mole fraction) (in acetonitrile, 293.15 K) of 0.0497. It also gave a solubility (mole fraction) (in acetonitrile, 298.15 K) of 0.0601, a solubility (mole fraction) (in acetonitrile, 303.15 K) of 0.0737 and a solubility (mole fraction) (in acetonitrile, 308.15 K) of 0.091. For the same molecule, the solubility (mole fraction) (in acetonitrile, 313.15 K) was 0.11, the solubility (mole fraction) (in acetonitrile, 318.15 K) was 0.134 and the solubility (mole fraction) (in acetonitrile, 323.15 K) was 0.161. For the same molecule, the solubility (mole fraction) (in acetylacetone, 278.15 K) was 0.0202, the solubility (mole fraction) (in acetylacetone, 283.15 K) was 0.0214 and the solubility (mole fraction) (in acetylacetone, 288.15 K) was 0.0232. The solubility (mole fraction) (in acetylacetone, 293.15 K) was 0.0256, the solubility (mole fraction) (in acetylacetone, 298.15 K) was 0.0285 and the solubility (mole fraction) (in acetylacetone, 303.15 K) was 0.0321. For the same molecule, the solubility (mole fraction) (in acetylacetone, 308.15 K) was 0.0367, the solubility (mole fraction) (in acetylacetone, 313.15 K) was 0.042 and the solubility (mole fraction) (in acetylacetone, 318.15 K) was 0.048. The solubility (mole fraction) (in acetylacetone, 323.15 K) was 0.0558, the solubility (mole fraction) (in dichloromethane, 278.15 K) was 0.00511 and the solubility (mole fraction) (in dichloromethane, 283.15 K) was 0.00821. For the same molecule, the solubility (mole fraction) (in dichloromethane, 288.15 K) was 0.0139, the solubility (mole fraction) (in dichloromethane, 293.15 K) was 0.0211 and the solubility (mole fraction) (in dichloromethane, 298.15 K) was 0.0297. For the same molecule, the solubility (mole fraction) (in dichloromethane, 303.15 K) was 0.0413, the solubility (mole fraction) (in dichloromethane, 308.15 K) was 0.0549 and the solubility (mole fraction) (in dichloromethane, 313.15 K) was 0.0727. It also gave a solubility (mole fraction) (in dichloromethane, 318.15 K) of 0.0947, a solubility (mole fraction) (in dichloromethane, 323.15 K) of 0.123 and a solubility (mole fraction) (in ethyl acetate, 278.15 K) of 0.0568. It also gave a solubility (mole fraction) (in ethyl acetate, 283.15 K) of 0.0667, a solubility (mole fraction) (in ethyl acetate, 288.15 K) of 0.0793 and a solubility (mole fraction) (in ethyl acetate, 293.15 K) of 0.0939. It also gave a solubility (mole fraction) (in ethyl acetate, 298.15 K) of 0.112, a solubility (mole fraction) (in ethyl acetate, 303.15 K) of 0.131 and a solubility (mole fraction) (in ethyl acetate, 308.15 K) of 0.154. The solubility (mole fraction) (in ethyl acetate, 313.15 K) was 0.181, the solubility (mole fraction) (in ethyl acetate, 318.15 K) was 0.209 and the solubility (mole fraction) (in ethyl acetate, 323.15 K) was 0.242. It also gave a solubility (mole fraction) (in methanol, 278.15 K) of 0.00985, a solubility (mole fraction) (in methanol, 283.15 K) of 0.0126 and a solubility (mole fraction) (in methanol, 288.15 K) of 0.0162. It also gave a solubility (mole fraction) (in methanol, 293.15 K) of 0.0212, a solubility (mole fraction) (in methanol, 298.15 K) of 0.0285 and a solubility (mole fraction) (in methanol, 303.15 K) of 0.0378. The solubility (mole fraction) (in methanol, 308.15 K) was 0.0497, the solubility (mole fraction) (in methanol, 313.15 K) was 0.0642 and the solubility (mole fraction) (in methanol, 318.15 K) was 0.0825. The solubility (mole fraction) (in methanol, 323.15 K) was 0.106, the solubility (mole fraction) (in n-butanol, 278.15 K) was 0.0041 and the solubility (mole fraction) (in n-butanol, 283.15 K) was 0.0047. For the same molecule, the solubility (mole fraction) (in n-butanol, 288.15 K) was 0.00592, the solubility (mole fraction) (in n-butanol, 293.15 K) was 0.00796 and the solubility (mole fraction) (in n-butanol, 298.15 K) was 0.0101. The solubility (mole fraction) (in n-butanol, 303.15 K) was 0.0135, the solubility (mole fraction) (in n-butanol, 308.15 K) was 0.0174 and the solubility (mole fraction) (in n-butanol, 313.15 K) was 0.0225. The solubility (mole fraction) (in n-butanol, 318.15 K) was 0.0287, the solubility (mole fraction) (in n-butanol, 323.15 K) was 0.0369 and the solubility (mole fraction) (in n-propanol, 278.15 K) was 0.00552. It also gave a solubility (mole fraction) (in n-propanol, 283.15 K) of 0.00674, a solubility (mole fraction) (in n-propanol, 288.15 K) of 0.00879 and a solubility (mole fraction) (in n-propanol, 293.15 K) of 0.0114. For the same molecule, the solubility (mole fraction) (in n-propanol, 298.15 K) was 0.0145, the solubility (mole fraction) (in n-propanol, 303.15 K) was 0.0185 and the solubility (mole fraction) (in n-propanol, 308.15 K) was 0.0241. The solubility (mole fraction) (in n-propanol, 313.15 K) was 0.0312, the solubility (mole fraction) (in n-propanol, 318.15 K) was 0.0398 and the solubility (mole fraction) (in n-propanol, 323.15 K) was 0.0507. For the same molecule, the solubility (mole fraction) (in water, 278.15 K) was 0.000327, the solubility (mole fraction) (in water, 283.15 K) was 0.00035 and the solubility (mole fraction) (in water, 288.15 K) was 0.000387. It also gave a solubility (mole fraction) (in water, 293.15 K) of 0.000438, a solubility (mole fraction) (in water, 298.15 K) of 0.000506 and a solubility (mole fraction) (in water, 303.15 K) of 0.000598. It also gave a solubility (mole fraction) (in water, 308.15 K) of 0.000715, a solubility (mole fraction) (in water, 313.15 K) of 0.000857 and a solubility (mole fraction) (in water, 318.15 K) of 0.00106. The solubility (mole fraction) (in water, 323.15 K) was 0.00133.
